Values of other authors in patent publication US20050065127A1, “2-Alkylidene-19-nor-vitamin D derivatives for the treatment of osteosarcoma” (Pfizer Inc., priority 2003, published 2005).

Test system: serum calcium (bone calcium mobilization)
Conditions: chronic mode, 7 days, rats; 20S compound at 130 pmol/day

SMILES: C=C1[C@H](O)CC(=C/C=C2\CCC[C@]3(C)[C@@H]([C@H](C)CCCC(C)(C)O)CC[C@@H]23)C[C@H]1O [2-Methylene-19-Nor-1,25-(OH)2D3, 1α,25-dihydroxy-2-methylene-19-nor-vitamin D3]
- Bone calcium mobilization activity (serum calcium) relative to 1,25-(OH)2D3: 10-100 times
